# Measurements as given in patent US8338598B2, “Herbicidal pyrido[2,3-B]pyrazines and their use as herbicides” (Syngenta Limited, priority 2008, dated 2012).
# Columns and labels:
# Type in all cases: in vivo
# [1] = system: test plants; experiment: Example B2 herbicidal action, pre-emergence, overall statement on the test plants; conditions: Example B2 protocol, rate not stated, result in words
# Procedure: (§1) Seeds of a variety of test species were sown in standard soil in pots. After cultivation for one day (pre-emergence) or after 8 days cultivation (post-emergence) under controlled conditions in a glasshouse (at 24/16° C., day/night; 14 hours light; 65% humidity), the plants were sprayed with an aqueous spray solution derived from the formulation of the technical active ingredient in acetone/water (50:50) solution containing 0.5% Tween 20 (polyoxyethelyene sorbitan monolaurate, CAS RN 9005-64-5). The test plants were then grown in a glasshouse under controlled conditions in a glasshouse (at 24/16° C., day/night; 14 hours light; 65% humidity) and watered twice daily. After 13 days, the test was evaluated (10=total damage to plant; 0=no damage to plant).
# [2] = system: Setaria faberi; experiment: Example B2 herbicidal action, post-emergence, pots in glasshouse; conditions: evaluated after 13 days, 10=total damage to plant, 0=no damage to plant
# Procedure: as §1
# [3] = system: Echinochloa crus-galli; experiment: as above; conditions: evaluated after 13 days, 10=total damage to plant, 0=no damage to plant
# Procedure: as §1
# [4] = system: Solanum nigrum; experiment: as above; conditions: evaluated after 13 days, 10=total damage to plant, 0=no damage to plant
# Procedure: as §1
# [5] = system: Amaranthus retroflexus; experiment: as above; conditions: evaluated after 13 days, 10=total damage to plant, 0=no damage to plant
# Procedure: as §1
# [6] = system: Ipomea hederaceae; experiment: as above; conditions: evaluated after 13 days, 10=total damage to plant, 0=no damage to plant
# Procedure: as §1
# [7] = system: Nasturtium officinale; experiment: Example B1 herbicidal action, post-emergence, seed trays in climatic chamber; conditions: 1000 g/ha, evaluated after 9 days, 10=total damage to plant, 0=no damage to plant
# Procedure: (§2) Seeds of a variety of test species were sown in sterilised standard soil in seed trays each having 96 cells. After cultivation for 8 to 9 days cultivation (post-emergence) under controlled conditions in a climatic chamber (cultivation at 23/17° C., day/night; 13 hours light; 50-60% humidity), the plants were treated with an aqueous spray solution of 1000 mg/l of the active ingredient dissolved in 10% DMSO (dimethyl sulfoxide, CAS RN 67-68-5) as a solvent, equivalent to 1000 g/ha. The plants were grown in the climatic chamber after application at (24/19° C., day/night; 13 hours light; 50-60% humidity) and watered twice daily. After 9 days until the test was evaluated (10=total damage to plant, 0=no damage to plant)
# [8] = system: Solanum nigrum; experiment: as above; conditions: 1000 g/ha, evaluated after 9 days, 10=total damage to plant, 0=no damage to plant
# Procedure: as §2
# [9] = system: Amaranthus retroflexus; experiment: as above; conditions: 1000 g/ha, evaluated after 9 days, 10=total damage to plant, 0=no damage to plant
# Procedure: as §2
# [10] = system: Stellaria media; experiment: as above; conditions: 1000 g/ha, evaluated after 9 days, 10=total damage to plant, 0=no damage to plant
# Procedure: as §2
# [11] = system: test plants; experiment: Example B2 herbicidal action, post-emergence, overall statement on the test plants; conditions: Example B2 protocol, rate not stated, result in words
# Procedure: as §1
structure (smiles),measurement,setting,value
Cc1nc2cc(-c3c(OC(=O)C(C)(C)C)c4nccnc4n(CC(F)F)c3=O)ccc2o1 [Compound C6],damage to the test plants,[1],little or no damage
same,"SETFA, damage to plant",[2]; 1000 g/ha,0
same,"ECHCG, damage to plant",[3]; 1000 g/ha,0
same,"SOLNI, damage to plant",[4]; 1000 g/ha,2
same,"AMARE, damage to plant",[5]; 1000 g/ha,3
same,"IPOHE, damage to plant",[6]; 1000 g/ha,0
Cn1nc(-c2c(O)c3nccnc3[nH]c2=O)c(C(F)(F)F)n1 [Compound B27],damage to the test plants,[1],little or no damage
same,"SETFA, damage to plant",[2]; 1000 g/ha,3
same,"ECHCG, damage to plant",[3]; 1000 g/ha,1
same,"SOLNI, damage to plant",[4]; 1000 g/ha,0
same,"AMARE, damage to plant",[5]; 1000 g/ha,0
same,"IPOHE, damage to plant",[6]; 1000 g/ha,1
"O=c1[nH]c2nccnc2c(O)c1-c1ccc(Cl)nc1Cl [Compound A13, 7-(2,6-dichloro-pyrid-3-yl)-8-hydroxy-5H-pyrido[2,3-b]pyrazin-6-one]",damage to the test plants,[1],little or no damage
same,"SETFA, damage to plant",[2]; 1000 g/ha,6
same,"ECHCG, damage to plant",[3]; 1000 g/ha,6
same,"SOLNI, damage to plant",[4]; 1000 g/ha,5
same,"AMARE, damage to plant",[5]; 1000 g/ha,6
same,"IPOHE, damage to plant",[6]; 1000 g/ha,6
"Cn1c(=O)c(-c2ccc(Cl)nc2Cl)c(OC(=O)C(C)(C)C)c2nccnc21 [Compound A15, 2,2-Dimethyl-propionic acid 7-(2,6-dichloro-pyrid-3-yl)-5-methyl-6-oxo-5,6-dihydro-pyrido[2,3-b]pyrazin-8-yl ester]",damage to the test plants,[1],little or no damage
same,"SETFA, damage to plant",[2]; 250 g/ha,0
same,"ECHCG, damage to plant",[3]; 250 g/ha,3
same,"SOLNI, damage to plant",[4]; 250 g/ha,4
same,"AMARE, damage to plant",[5]; 250 g/ha,2
same,"IPOHE, damage to plant",[6]; 250 g/ha,4
"CC(C)C(=O)Oc1c(-c2c(C(F)(F)F)nn(C)c2OC(F)F)c(=O)[nH]c2nccnc12 [Compound B23, isobutyric acid 7-(5-difluoromethoxy-1-methyl-3-trifluoromethyl-1H-pyrazol-4-yl)-6-oxo-5,6-dihydro-pyrido[2,3-b]pyrazin-8-yl ester]",damage to the test plants,[1],little or no damage
same,"SETFA, damage to plant",[2]; 250 g/ha,4
same,"ECHCG, damage to plant",[3]; 250 g/ha,2
same,"SOLNI, damage to plant",[4]; 250 g/ha,1
same,"AMARE, damage to plant",[5]; 250 g/ha,3
same,"IPOHE, damage to plant",[6]; 250 g/ha,2
"CCn1c(=O)c(-c2ncc(Cl)cc2Cl)c(OC(=O)C(C)C)c2nccnc21 [Compound A6, isobutyric acid 7-(3,5-dichloro-pyrid-2-yl)-5-ethyl-6-oxo-5,6-dihydro-pyrido[2,3-b]pyrazin-8-yl ester]","NAAOF, damage to plant",[7],5
same,"SOLNI, damage to plant",[8],0
same,"AMARE, damage to plant",[9],2
same,"STEME, damage to plant",[10],3
Cc1nc2cc(-c3c(OC(=O)C(C)(C)C)c4nccnc4[nH]c3=O)ccc2o1 [Compound C5],damage to the test plants,[11],little or no damage
same,damage to the test plants,[1],little or no damage
"Cc1nc(Cl)sc1-c1c(OC(=O)C(C)C)c2nccnc2n(C)c1=O [Compound B2, isobutyric acid 7-(2-chloro-4-methyl-thiazol-5-yl)-5-methyl-6-oxo-5,6-dihydro-pyrido[2,3-b]pyrazin-8-yl ester]","NAAOF, damage to plant",[7],5
same,"SOLNI, damage to plant",[8],0
same,"AMARE, damage to plant",[9],0
same,"STEME, damage to plant",[10],0
"CC(C)(C)C(=O)Oc1c(-c2c(Cl)cncc2Cl)c(=O)[nH]c2nccnc12 [Compound A8, 2,2-Dimethyl-propionic acid 7-(3,5-dichloro-pyrid-4-yl)-6-oxo-5,6-dihydro-pyrido[2,3-b]pyrazin-8-yl ester]",damage to the test plants,[1],little or no damage
same,"SETFA, damage to plant",[2]; 1000 g/ha,0
same,"ECHCG, damage to plant",[3]; 1000 g/ha,0
same,"SOLNI, damage to plant",[4]; 1000 g/ha,1
same,"AMARE, damage to plant",[5]; 1000 g/ha,0
same,"IPOHE, damage to plant",[6]; 1000 g/ha,1
"CC(C)C(=O)Oc1c(-c2ncc(Cl)cc2Cl)c(=O)n(C)c2nccnc12 [Compound A7, Isobutyric acid 7-(3,5-dichloro-pyrid-2-yl)-5-methyl-6-oxo-5,6-dihydro-pyrido[2,3-b]pyrazin-8-yl ester]","NAAOF, damage to plant",[7],7
same,"SOLNI, damage to plant",[8],0
same,"AMARE, damage to plant",[9],7
same,"STEME, damage to plant",[10],7
